Results on 17 compounds are retold here after US9034855B2, “Substituted phenylacetate and phenylpropane amides and use thereof” (Bayer Intellectual Property GmbH, priority 2010, dated 2015).

Assay [1] addresses T1, human V2 receptor (Homo sapiens, UniProt P30518).
T1 construct: expressed in transfected cells; host or cells: CHO K1 (ATCC), constitutively expressing modified aequorin, co-transfected with promiscuous G-alpha-16
The assay is described as follows: Cellular in vitro assay for determining the vasopressin receptor activity (aequorin luminescence, recombinant CHO cells), human V2. It counts as cell-based. Conditions: CHO cells expressing aequorin and Gα16, transfected with human V2 receptor; agonist [Arg8]-vasopressin; read-out: IC50 hV2. An excerpt:
(§1) B-1. Cellular In Vitro Assay for Determining the Vasopressin Receptor Activity
(§2) The identification of agonists and antagonists of the V1a and V2 vasopressin receptors from humans and rats and also the quantification of the activity of the substances described here takes place using recombinant cell lines. These cells derive originally from a hamster's ovary epithelial cell (Chinese Hamster Ovary, CHO K1, ATCC: American Type Culture Collection, Manassas, Va. 20108, USA). The test cell lines constitutively express a modified form of the calcium-sensitive photoprotein aequorin, which, after reconstitution with the cofactor coelenterazine, emits light when there are increases in the free calcium concentration (Rizzuto R., Simpson A. W., Brini M., Pozzan T.; Nature 358 (1992) 325-327). In addition, the cells are stably transfected with the human or rat V1a or V2 receptors. In the case of the Gs-coupling V2 receptors, the cells are stably transfected with a further gene, which codes for the promiscuous Gα16 protein (Amatruda T. T., Steele D. A., Slepak V. Z., Simon M A., Proc. Na. Acad. Sci. USA 88 (1991), 5587-5591), either independently or as a fusion gene. The resulting vasopressin receptor test cells react to stimulation of the recombinantly expressed vasopressin receptors by intracellular release of calcium ions, which can be quantified by the resulting aequorin luminescence using a suitable luminometer (Milligan G., Marshall F., Rees S., Trends in Pharmaco. Sci. 17 (1996) 235-237).
(§3) On the day before the assay, the cells are plated out in culture medium (DMEM, 10% FCS, 2 mM glutamine, 10 mM HEPES) in 384-well microtiter plates and kept in a cell incubator (96% atmospheric humidity, 5% v/v carbon dioxide, 37° C.). On the day of the assay, the culture medium is replaced by a Tyrode solution (140 mM sodium chloride, 5 mM potassium chloride, 1 mM magnesium chloride, 2 mM calcium chloride, 20 mM glucose, 20 mM HEPES), which additionally contains the cofactor coelenterazine (50 μM), and the microtiter plate is then incubated for a further 3-4 hours. The test substances in various concentrations are placed for 10 to 20 minutes in the wells of the microtiter plate before the agonist [Arg8]-vasopressin is added, and the resulting light signal is measured immediately in the luminometer. The IC50 values are calculated using the GraphPad PRISM computer program (Version 3.02).
(§4) Table A below lists representative IC50 values for the compounds according to the invention transfected with the human V1a or V2 receptor: […]

Assay [2] addresses T2, human V1a receptor (Homo sapiens, UniProt P37288).
T2 construct: expressed in transfected cells; host or cells: CHO K1 (ATCC), constitutively expressing modified aequorin
The assay is described as follows: Cellular in vitro assay for determining the vasopressin receptor activity (aequorin luminescence, recombinant CHO cells), human V1a. The class given is cell-based. The following applies: CHO cells expressing aequorin, transfected with human V1a receptor; agonist [Arg8]-vasopressin; read-out: IC50 hV1a.
Excerpt: as §1, §2, §3, §4

T1 sequence (P30518 whole entry): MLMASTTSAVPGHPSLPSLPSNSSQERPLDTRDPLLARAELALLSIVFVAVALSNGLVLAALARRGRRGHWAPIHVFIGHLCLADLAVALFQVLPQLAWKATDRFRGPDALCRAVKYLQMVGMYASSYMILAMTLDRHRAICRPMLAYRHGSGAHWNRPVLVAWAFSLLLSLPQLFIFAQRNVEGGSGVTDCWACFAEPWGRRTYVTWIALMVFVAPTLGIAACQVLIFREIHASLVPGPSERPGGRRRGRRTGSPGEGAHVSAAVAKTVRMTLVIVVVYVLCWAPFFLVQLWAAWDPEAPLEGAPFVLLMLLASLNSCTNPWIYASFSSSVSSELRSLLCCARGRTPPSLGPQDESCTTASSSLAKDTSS
T2 sequence (P37288 whole entry): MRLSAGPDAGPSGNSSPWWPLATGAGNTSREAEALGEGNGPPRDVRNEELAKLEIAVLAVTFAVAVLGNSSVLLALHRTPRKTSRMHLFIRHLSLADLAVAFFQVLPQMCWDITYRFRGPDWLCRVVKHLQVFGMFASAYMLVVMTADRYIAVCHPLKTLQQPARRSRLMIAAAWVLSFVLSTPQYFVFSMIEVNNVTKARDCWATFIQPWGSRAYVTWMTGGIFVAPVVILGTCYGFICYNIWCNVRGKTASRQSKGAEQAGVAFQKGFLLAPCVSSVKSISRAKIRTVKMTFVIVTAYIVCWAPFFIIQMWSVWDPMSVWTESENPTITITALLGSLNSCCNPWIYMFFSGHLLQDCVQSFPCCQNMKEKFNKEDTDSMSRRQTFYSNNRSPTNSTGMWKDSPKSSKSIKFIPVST

Broadly, the IC50 is the concentration at which inhibition is half-maximal. In the case of `O=C(C[C@H](NC(=O)Cn1nc(-c2ccc(Cl)cc2)n(C2CC2)c1=O)c1ccccc1C(F)(F)F)NCCO` [Example 55, (3S)-3-({[3-(4-Chlorophenyl)-4-cyclopropyl-5-oxo-4,5-dihydro-1H-1,2,4-triazol-1-yl]acetyl}-amino)-N-(2-hydroxyethyl)-3-[2-(trifluoromethyl)phenyl]propanamide], the IC50 stood at 569 nM in assay [1] and 6 nM in assay [2].

As for `CC(C)(NC(=O)C[C@H](NC(=O)Cn1nc(-c2ccc(Cl)cc2)n(C[C@H](O)C(F)(F)F)c1=O)c1cccc(C(F)(F)F)c1)C(N)=O` [Example 40, N^2-{(3S)-3-[({3-(4-Chlorophenyl)-5-oxo-4-[(2S)-3,3,3-trifluoro-2-hydroxypropyl]-4,5-dihydro-1H-1,2,4-triazol-1-yl}acetyl)amino]-3-[3-(trifluoromethyl)phenyl]propanoyl}-2-methylalaninamide], the 50% inhibitory concentration (IC50) stood at 8.1 nM in assay [1] and 11.1 nM in assay [2].

On to `CC(C)(CO)NC(=O)C(NC(=O)Cn1nc(-c2ccc(Cl)cc2)n(C[C@H](O)C(F)(F)F)c1=O)c1cccc(C(F)(F)F)c1` (single isomer, unassigned) [Example 42], for which the IC50 in assay [1] was determined as 158 nM; in assay [2], 38 nM.

As for `COC(=O)CCNC(=O)C(NC(=O)Cn1nc(-c2ccc(Cl)cc2)n(C2CC2)c1=O)c1cccc(C(F)(F)F)c1` (racemic) [Example 15, Methyl N-{({[3-(4-chlorophenyl)-4-cyclopropyl-5-oxo-4,5-dihydro-1H-1,2,4-triazol-1-yl]acetyl}-amino) [3-(trifluoromethyl)phenyl]acetyl}-beta-alaninate], the IC50 in assay [1] was found to be 310 nM; in assay [2], 12 nM.

Consider `CC(C)(NC(=O)C(NC(=O)Cn1nc(-c2ccc(Cl)cc2)n(C[C@H](O)C(F)(F)F)c1=O)c1cccc(C(F)(F)F)c1)C(=O)O` (single isomer, unassigned) [Example 25], for which the IC50 in assay [1] is 282 nM; in assay [2], 502 nM.

Take `C[C@](NC(=O)Cn1nc(-c2ccc(Cl)cc2)n(C[C@H](O)C(F)(F)F)c1=O)(C(=O)NCCC(N)=O)c1cccc(C(F)(F)F)c1` [Example 19, N^3-{(2R)-2-[({3-(4-Chlorophenyl)-5-oxo-4-[(2S)-3,3,3-trifluoro-2-hydroxypropyl]-4,5-dihydro-1H-1,2,4-triazol-1-yl}acetyl)amino]-2-[3-(trifluoromethyl)phenyl]propanoyl}-beta-alaninamide]: the IC50 in assay [1] is 1.1 nM; in assay [2], 0.6 nM.

For the compound `CC(C)(NC(=O)C(NC(=O)Cn1nc(-c2ccc(Cl)cc2)n(Cc2ccccc2F)c1=O)c1ccccc1Cl)C(N)=O` (racemic) [Example 33, N^2-[(2-Chlorophenyl)({[3-(4-chlorophenyl)-4-(2-fluorobenzyl)-5-oxo-4,5-dihydro-1H-1,2,4-triazol-1-yl]acetyl}amino)acetyl]-2-methylalaninamide], the 50% inhibitory concentration (IC50) amounted to 1050 nM in assay [1] and 17 nM in assay [2].

Consider `CC(C)(NC(=O)C(NC(=O)Cn1nc(-c2ccc(Cl)cc2)n(CCC(F)(F)F)c1=O)c1ccccc1Cl)C(N)=O` (racemic) [Example 35, N^2-[(2-Chlorophenyl)({[3-(4-chlorophenyl)-5-oxo-4-(3,3,3-trifluoropropyl)-4,5-dihydro-1H-1,2,4-triazol-1-yl]acetyl}amino)acetyl]-2-methylalaninamide], for which the values for the half-maximal inhibitory concentration (IC50) in assay [1] and in assay [2] were 655 nM and 8.9 nM, respectively.

Take `O=C(O)CCNC(=O)C(NC(=O)Cn1nc(-c2ccc(Cl)cc2)n(C2CC2)c1=O)c1cccc(C(F)(F)F)c1` (racemic) [Example 16, N-{({[3-(4-Chlorophenyl)-4-cyclopropyl-5-oxo-4,5-dihydro-1H-1,2,4-triazol-1-yl]acetyl}amino) [3-(trifluoromethyl)phenyl]acetyl}-beta-alanine]: the figures for the half-inhibitory concentration (IC50) in assay [1] and in assay [2] were 262 nM and 524 nM, respectively.

Consider `CCOC(=O)C1(NC(=O)C(NC(=O)Cn2nc(-c3ccc(Cl)cc3)n(C[C@H](O)C(F)(F)F)c2=O)c2cccc(C(F)(F)F)c2)CC1` (stereo partly drawn) [Example 1, Ethyl 1-({[({3-(4-chlorophenyl)-5-oxo-4-[(2S)-3,3,3-trifluoro-2-hydroxypropyl]-4,5-dihydro-1H-1,2,4-triazol-1-yl}acetyl)amino][3-(trifluoromethyl)phenyl]acetyl}amino)cyclopropanecarboxylate], for which the IC50 in assay [1] was 58 nM; in assay [2], 9.2 nM.

In the case of `CC(C)(CO)NC(=O)C(NC(=O)Cn1nc(-c2ccc(Cl)cc2)n(C[C@H](O)C(F)(F)F)c1=O)c1cccc(C(F)(F)F)c1` (single isomer, unassigned) [Example 41], the IC50 in assay [1] came out at 3.6 nM; in assay [2], 1.5 nM.

On to `CC(C)(NC(=O)C(NC(=O)Cn1nc(-c2ccc(Cl)cc2)n(C[C@H](O)C(F)(F)F)c1=O)c1cccc(C(F)(F)F)c1)C(=O)O` (single isomer, unassigned) [Example 26], for which the half-maximal inhibitory concentration (IC50) amounted to 2.3 nM in assay [1] and 1.7 nM in assay [2].

With `O=C(Cn1nc(-c2ccc(Cl)cc2)n(C[C@H](O)C(F)(F)F)c1=O)NC(C(=O)NCCOC(F)(F)F)c1cccc(C(F)(F)F)c1` (single isomer, unassigned) [Example 59], the IC50 in assay [1] came out at 61 nM; in assay [2], 136 nM.

On to `CC(C)(NC(=O)C(NC(=O)Cn1nc(-c2ccc(Cl)cc2)n(C[C@H](O)C(F)(F)F)c1=O)c1cccc(C(F)(F)F)c1)C(N)=O` (single isomer, unassigned) [Example 28], for which the values for the concentration for half-maximal inhibition (IC50) in assay [1] and in assay [2] were 346 nM and 1380 nM, respectively.

Regarding `CC(C)(NC(=O)C(NC(=O)Cn1nc(-c2ccc(Cl)cc2)n(Cc2ccccc2F)c1=O)c1cccc(Cl)c1Cl)C(N)=O` (racemic) [Example 36, N^2-[({[3-(4-Chlorophenyl)-4-(2-fluorobenzyl)-5-oxo-4,5-dihydro-1H-1,2,4-triazol-1-yl]acetyl}-amino)(2,3-dichlorophenyl)acetyl]-2-methylalaninamide], the values for the IC50 in assay [1] and in assay [2] were 780 nM and 88.2 nM, respectively.

Take `CC(C)(NC(=O)[C@](C)(NC(=O)Cn1nc(-c2ccc(Cl)cc2)n(C[C@H](O)C(F)(F)F)c1=O)c1cccc(C(F)(F)F)c1)C(N)=O` [Example 22, N^2-{(2R)-2-[({3-(4-Chlorophenyl)-5-oxo-4-[(2S)-3,3,3-trifluoro-2-hydroxypropyl]-4,5-dihydro-1H-1,2,4-triazol-1-yl}acetyl)amino]-2-[3-(trifluoromethyl)phenyl}propanoyl]-2-methylalaninamide]: the IC50 was 2.7 nM in assay [1] and 1.2 nM in assay [2].

Take `O=C(Cn1nc(-c2ccc(Cl)cc2)n(C[C@H](O)C(F)(F)F)c1=O)NC(C(=O)NC1(C(=O)O)CC1)c1cccc(C(F)(F)F)c1` (single isomer, unassigned) [Example 4]: the IC50 came out at 4.1 nM in assay [1] and 1.9 nM in assay [2].
